Test results published in patent US5276139A, “Haptens useful in evaluating inhibition of PNN elastase by N-substituted azetidinones” (Merck & Co., Inc., priority 1991, dated 1994).

Tested on: antibody R674
Assay: Radioimmune assay: displacement of 3H-Compound A' or 3H-Compound B' from antibody R674
Type: binding, rabbit
Conditions: up to 10 μM (the highest concentration tested)
Protocol: Non-antibody-bound radioactive isotope was removed from the reaction mixture by its absorption onto dextran-coated activated charcoal. […] The activated charcoal was then suspended to 3% (w/v) in PBS dextran and allowed to stand overnight, washed once again in PBS dextran and resuspended to 3% (w/v) in PBS dextran and stored at 4° C. Immediately before use in the assay, the dextran-coated activated charcoal was diluted 10-fold in DULBECCO's PBS and 1 ml was added to each assay tube. […] The supernatant fluid was decanted into 9 ml of AQUASOL-2 scintillation fluid and radioactivity counted in a beta-counter. Each assay contains charcoal free controls, to which 1 ml PBS was added, for determination of total counts (BO), and antibody free controls for determination of non-specific binding. Percent specific binding was determined by subtracting the value for non-specific binding from the value of total antiserum binding and then dividing by the total radioactivity added.
The antiserum was diluted in PET/GEL buffer (1:12,000 final dilution in the 200 μl assay volume) as described above so that it binds 20-30% of the total radioactivity added. The same diluted stock was then used for all assay tubes with-in the same assay. […] The assay was set up on a competition basis. The unlabeled reactivation product competed with the tritiated reactivation product for binding to the antibody R674. […]

SMILES	effect on binding to antibody R674
NC(N)=O [Urea]	without effect
N=C(N)NCCC[C@H](N)C(=O)O [arginine]	without effect
